Results reported in US8741906B2 (priority 2011, dated 2014).
Where two headings read alike, the source gives them in different places.

What was measured:
[1] = biological target: T1, human CB2 receptors (Homo sapiens, UniProt P34972); assay: functional cAMP assay, human CB2; type: cell-based; conditions: CHO cells expressing human CB2, cAMP; read-out: human CB2 EC50
T1 construct: expressed in transfected cells; host or cells: CHO cells
In short: (§1)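 Readout: TR-FRET cAMP detection at 730 and 645 nm with 355 nm excitation, quantified from a standard curve spanning 10 μM to 0.13 nM cAMP. Human CB1- or CB2-expressing CHO cells were exposed to compound for 30 min at 30 °C in KRB buffer containing 1 mM IBMX. EC50 derived.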

[2] = biological target: T2, human CB1 receptors (Homo sapiens, UniProt P21554); assay: functional cAMP assay, human CB1; type: cell-based
T2 construct: expressed in transfected cells; host or cells: CHO cells
T2 sequence (P21554 whole entry): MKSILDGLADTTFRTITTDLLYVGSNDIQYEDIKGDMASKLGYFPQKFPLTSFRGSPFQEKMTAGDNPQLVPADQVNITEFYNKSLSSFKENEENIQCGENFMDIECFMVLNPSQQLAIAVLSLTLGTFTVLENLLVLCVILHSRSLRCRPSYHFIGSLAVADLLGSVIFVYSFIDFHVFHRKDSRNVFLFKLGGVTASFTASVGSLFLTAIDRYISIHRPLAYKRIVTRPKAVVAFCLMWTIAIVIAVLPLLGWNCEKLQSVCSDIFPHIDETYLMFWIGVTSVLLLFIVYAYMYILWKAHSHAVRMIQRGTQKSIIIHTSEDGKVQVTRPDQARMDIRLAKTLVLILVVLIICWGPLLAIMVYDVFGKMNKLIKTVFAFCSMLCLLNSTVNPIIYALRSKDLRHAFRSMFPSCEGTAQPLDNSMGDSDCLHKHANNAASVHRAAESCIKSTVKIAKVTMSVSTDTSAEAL
In short: as §1

[3] = CHO cells expressing human CB1, cAMP, read-out: human CB1 EC50

T1 sequence (P34972 whole entry): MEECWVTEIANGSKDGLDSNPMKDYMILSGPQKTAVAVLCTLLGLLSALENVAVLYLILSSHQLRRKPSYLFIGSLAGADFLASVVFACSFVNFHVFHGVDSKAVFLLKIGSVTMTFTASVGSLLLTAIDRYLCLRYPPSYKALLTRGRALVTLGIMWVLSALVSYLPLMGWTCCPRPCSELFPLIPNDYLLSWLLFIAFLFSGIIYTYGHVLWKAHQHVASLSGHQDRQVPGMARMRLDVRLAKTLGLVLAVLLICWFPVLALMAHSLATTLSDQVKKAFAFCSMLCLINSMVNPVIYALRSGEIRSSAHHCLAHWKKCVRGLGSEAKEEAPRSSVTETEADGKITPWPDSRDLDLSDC

For `COc1nc(C(C)(C)C)nc2c1nnn2Cc1ccccc1Cl` [Example 207, 5-tert-Butyl-3-(2-chloro-benzyl)-7-methoxy-3H-[1,2,3]triazolo[4,5-d]pyrimidine], the EC50 [1] was 68 nM and the EC50 [2, 3] was over 10000 nM.

`CC(C)(C)c1nc(N2CCC(F)(F)C2)c2nnn(Cc3c(C(F)(F)F)ccc(Cl)c3Cl)c2n1` [Example 123, 5-tert-Butyl-3-(2,3-dichloro-6-trifluoromethyl-benzyl)-7-(3,3-difluoro-pyrrolidin-1-yl)-3H-[1,2,3]triazolo[4,5-d]pyrimidine] was tested, and the EC50 [1] was 0.8 nM and the EC50 [2, 3] was 306 nM.

Compound `CC(C)(C)c1nc(N2CCC(F)(F)C2)c2nnn(CCc3cccnc3)c2n1` [Example 121, 5-tert-Butyl-7-(3,3-difluoro-pyrrolidin-1-yl)-3-(2-pyridin-3-yl-ethyl)-3H-[1,2,3]triazolo[4,5-d]pyrimidine] has an EC50 [1] of 0.3 nM and an EC50 [2, 3] of over 10000 nM.

Compound `CC(C)(C)c1nc(N2CC[C@](C)(O)C2)c2nnn(Cc3nnnn3C3CC3)c2n1` [Example 230-a, (S)-1-(5-tert-butyl-3-((1-cyclopropyl-1H-tetrazol-5-yl)methyl)-3H-[1,2,3]triazolo[4,5-d]pyrimidin-7-yl)-3-methylpyrrolidin-3-ol] has an EC50 [1] of 2.7 nM and an EC50 [2, 3] of over 10000 nM.

`CC(C)(C)c1nc(N2CCC(F)(F)C2)c2nnn(Cc3cc(F)c(F)cc3Cl)c2n1` [Example 77, 5-tert-Butyl-3-(2-chloro-4,5-difluoro-benzyl)-7-(3,3-difluoro-pyrrolidin-1-yl)-3H-[1,2,3]triazolo[4,5-d]pyrimidine] gave an EC50 [1] of 0.8 nM and an EC50 [2, 3] of over 10000 nM.

`CC(C)(C)c1nc(N2CCC(F)(F)C2)c2nnn(Cc3ccccc3Cl)c2n1` [Example 6, 5-tert-Butyl-3-(2-chloro-benzyl)-7-(3,3-difluoro-pyrrolidin-1-yl)-3H-[1,2,3]triazolo[4,5-d]pyrimidine] showed an EC50 [1] of 0.2 nM and an EC50 [2, 3] of 165 nM.

In the case of `Cn1nnnc1Cn1nnc2c(N3CCC(F)(F)C3)nc(C(C)(C)C)nc21` [Example 131, 5-tert-Butyl-7-(3,3-difluoro-pyrrolidin-1-yl)-3-(1-methyl-1H-tetrazol-5-ylmethyl)-3H-[1,2,3]triazolo[4,5-d]pyrimidine], the EC50 [1] is reported as 0.1 nM and the EC50 [2, 3] is reported as over 10000 nM.

Work on `CC(C)(C)c1nc(N2CCC(F)(F)C2)c2nnn(Cc3c[nH]nc3C(F)(F)F)c2n1` [Example 135, 5-tert-Butyl-7-(3,3-difluoro-pyrrolidin-1-yl)-3-(3-trifluoromethyl-1H-pyrazol-4-ylmethyl)-3H-[1,2,3]triazolo[4,5-d]pyrimidine] yielded an EC50 [1] of 0.4 nM and an EC50 [2, 3] of 1400 nM.

`CC(C)(C)c1nc(N2CCC[C@H]2C#N)c2nnn(Cc3ccccc3Cl)c2n1` [Example 50, (S)-1-[5-tert-Butyl-3-(2-chloro-benzyl)-3H-[1,2,3]triazolo[4,5-d]pyrimidin-7-yl]-pyrrolidine-2-carbonitrile] was tested, and the EC50 [1] was 1 nM and the EC50 [2, 3] was 139 nM.

In the case of `Cn1nncc1Cn1nnc2c(N3CC[C@H](O)[C@@H]3CO)nc(C(C)(C)C)nc21` [Example 171, (2S,3S)-1-[5-tert-Butyl-3-(3-methyl-3H-[1,2,3]triazol-4-ylmethyl)-3H-[1,2,3]triazolo[4,5-d]pyrimidin-7-yl]-2-hydroxymethyl-pyrrolidin-3-ol], the EC50 [1] is reported as 54.2 nM and the EC50 [2, 3] is reported as over 10000 nM.

For `CC1(Cn2nnc3c(N4CCC(F)(F)C4)nc(C(C)(C)C)nc32)COC1` [Example 114, 5-tert-Butyl-7-(3,3-difluoro-pyrrolidin-1-yl)-3-(3-methyl-oxetan-3-ylmethyl)-3H-[1,2,3]triazolo[4,5-d]pyrimidine], the EC50 [1] was 0.4 nM and the EC50 [2, 3] was over 10000 nM.

`CC(C)(C)c1nc(N2CCC(F)(F)C2)c2nnn(Cc3nc(Cl)ccc3Cl)c2n1` [Example 100, 5-tert-Butyl-3-(3,6-dichloro-pyridin-2-ylmethyl)-7-(3,3-difluoro-pyrrolidin-1-yl)-3H-[1,2,3]triazolo[4,5-d]pyrimidine] gave an EC50 [1] of 0.1 nM and an EC50 [2, 3] of 110 nM.

`CC(C)(C)c1nc(N2CCC(F)(F)C2)c2nnn(Cc3nccc(Cl)c3Cl)c2n1` [Example 124, 5-tert-Butyl-3-(3,4-dichloro-pyridin-2-ylmethyl)-7-(3,3-difluoro-pyrrolidin-1-yl)-3H-[1,2,3]triazolo[4,5-d]pyrimidine] gave an EC50 [1] of 0.3 nM and an EC50 [2, 3] of 276 nM.

`CC(C)(C)c1nc(N2CCC(F)(F)C2)c2nnn(Cc3ccc(Cl)cc3Cl)c2n1` [Example 68, 5-tert-Butyl-3-(2,4-dichloro-benzyl)-7-(3,3-difluoro-pyrrolidin-1-yl)-3H-[1,2,3]triazolo[4,5-d]pyrimidine] was tested, and the EC50 [1] was 0.7 nM and the EC50 [2, 3] was over 10000 nM.

Work on `CC(C)(C)c1nc(NC2CCCCC2)c2nnn(Cc3ccccc3Cl)c2n1` [Example 8, [5-tert-Butyl-3-(2-chloro-benzyl)-3H-[1,2,3]triazolo[4,5-d]pyrimidin-7-yl]-cyclohexyl-amine] yielded an EC50 [1] of 647 nM and an EC50 [2] of over 10000 nM.

For `Cc1nonc1Cn1nnc2c(N3CC[C@](C)(O)C3)nc(C(C)(C)C)nc21` [Example 228-a, (S)-1-(5-tert-butyl-3-((4-methyl-1,2,5-oxadiazol-3-yl)methyl)-3H-[1,2,3]triazolo[4,5-d]pyrimidin-7-yl)-3-methylpyrrolidin-3-ol], the EC50 [1] was 1.8 nM and the EC50 [2, 3] was over 10000 nM.

For `COCCn1nnc2c(N3CCC(F)(F)C3)nc(C(C)(C)C)nc21` [Example 62, 5-tert-Butyl-7-(3,3-difluoro-pyrrolidin-1-yl)-3-(2-methoxy-ethyl)-3H-[1,2,3]triazolo[4,5-d]pyrimidine], the EC50 [1] was 3.3 nM and the EC50 [2, 3] was over 10000 nM.

With `C[C@@H]1CC[C@@H](C)N1c1nc(C(C)(C)C)nc2c1nnn2Cc1ccccc1Cl` [Example 25, 5-tert-Butyl-3-(2-chloro-benzyl)-7-((2R,5R)-2,5-dimethyl-pyrrolidin-1-yl)-3H-[1,2,3]triazolo[4,5-d]pyrimidine] the EC50 [1] was 31 nM and the EC50 [2, 3] was 919 nM.

Compound `CNC1CCN(c2nc(C(C)(C)C)nc3c2nnn3Cc2ccccc2Cl)C1` (centres unmarked) [Example 190, {1-[5-tert-Butyl-3-(2-chloro-benzyl)-3H-[1,2,3]triazolo[4,5-d]pyrimidin-7-yl]-pyrrolidin-3-yl}-methyl-amine] has an EC50 [1] of 72.6 nM and an EC50 [2, 3] of over 10000 nM.

`CC(C)(C)c1nc(N2CCC(F)(F)C2)c2nnn(Cc3nc(C(F)(F)F)no3)c2n1` [Example 156, 5-tert-Butyl-7-(3,3-difluoro-pyrrolidin-1-yl)-3-(3-trifluoromethyl-[1,2,4]oxadiazol-5-ylmethyl)-3H-[1,2,3]triazolo[4,5-d]pyrimidine] gave an EC50 [1] of 5.6 nM and an EC50 [2, 3] of over 10000 nM.

Compound `CC(C)(C)c1nc(N2CCC(F)(F)C2)c2nnn(Cc3ccccc3S(C)(=O)=O)c2n1` [Example 112, 5-tert-Butyl-7-(3,3-difluoro-pyrrolidin-1-yl)-3-(2-methanesulfonyl-benzyl)-3H-[1,2,3]triazolo[4,5-d]pyrimidine] has an EC50 [1] of 0.1 nM and an EC50 [2, 3] of 4.7 nM.

`CC(=O)N[C@H]1CCN(c2nc(C(C)(C)C)nc3c2nnn3Cc2ccccc2Cl)C1` [Example 192, N-{(S)-1-[5-tert-Butyl-3-(2-chloro-benzyl)-3H-[1,2,3]triazolo[4,5-d]pyrimidin-7-yl]-pyrrolidin-3-yl}-acetamide] showed an EC50 [1] of 22 nM and an EC50 [2, 3] of over 10000 nM.

`CC(C)(C)c1nc(N2CCC(F)(F)C2)c2nnn(Cc3ccccn3)c2n1` [Example 73, 5-tert-Butyl-7-(3,3-difluoro-pyrrolidin-1-yl)-3-pyridin-2-ylmethyl-3H-[1,2,3]triazolo[4,5-d]pyrimidine] was tested, and the EC50 [1] was 0.1 nM and the EC50 [2, 3] was 60.9 nM.

`CC(C)(C)c1nc(N2CCC(F)(F)C2)c2nnn(Cc3c(F)cccc3Cl)c2n1` [Example 72, 5-tert-Butyl-3-(2-chloro-6-fluoro-benzyl)-7-(3,3-difluoro-pyrrolidin-1-yl)-3H-[1,2,3]triazolo[4,5-d]pyrimidine] was tested, and the EC50 [1] was 0.1 nM and the EC50 [2, 3] was 41 nM.

`Cc1nc(Cn2nnc3c(N4CCC(F)(F)C4)nc(C(C)(C)C)nc32)no1` [Example 130, 5-tert-Butyl-7-(3,3-difluoro-pyrrolidin-1-yl)-3-(5-methyl-[1,2,4]oxadiazol-3-ylmethyl)-3H-[1,2,3]triazolo[4,5-d]pyrimidine] gave an EC50 [1] of 0.5 nM and an EC50 [2, 3] of 564 nM.

For `CC(C)(C)c1nc(N2CC[C@@H](O)C2)c2nnn(Cc3ccccc3Cl)c2n1` [Example 27, (R)-1-[5-tert-Butyl-3-(2-chloro-benzyl)-3H-[1,2,3]triazolo[4,5-d]pyrimidin-7-yl]-pyrrolidin-3-ol], the EC50 [1] was 5.1 nM and the EC50 [2, 3] was over 10000 nM.

`CC(C)(C)c1nc(N2CCC[C@@H](O)C2)c2nnn(Cc3ccccc3Cl)c2n1` [Example 34, (R)-1-[5-tert-Butyl-3-(2-chloro-benzyl)-3H-[1,2,3]triazolo[4,5-d]pyrimidin-7-yl]-piperidin-3-ol] was tested, and the EC50 [1] was 27.5 nM and the EC50 [2, 3] was 2270 nM.

In the case of `CC(C)(C)c1nc(N2CCC(=O)C2)c2nnn(Cc3ccccc3Cl)c2n1` [Example 188, 1-[5-tert-Butyl-3-(2-chloro-benzyl)-3H-[1,2,3]triazolo[4,5-d]pyrimidin-7-yl]-pyrrolidin-3-one], the EC50 [1] is reported as 1 nM and the EC50 [2, 3] is reported as over 10000 nM.

`Cc1noc(Cn2nnc3c(N4CC[C@H](O)C4)nc(C(C)(C)C)nc32)n1` [Example 137, (S)-1-[5-tert-Butyl-3-(3-methyl-[1,2,4]oxadiazol-5-ylmethyl)-3H-[1,2,3]triazolo[4,5-d]pyrimidin-7-yl]-pyrrolidin-3-ol] was tested, and the EC50 [1] was 18.2 nM and the EC50 [2, 3] was over 10000 nM.

`CC(C)(C)c1nc(N2CCSC2)c2nnn(Cc3ccccc3Cl)c2n1` [Example 19, 5-tert-Butyl-3-(2-chloro-benzyl)-7-thiazolidin-3-yl-3H-[1,2,3]triazolo[4,5-d]pyrimidine] was tested, and the EC50 [1] was 1.7 nM and the EC50 [2, 3] was 131 nM.

`CC(C)(C)c1nc(N2CCC(F)(F)C2)c2nnn(Cc3cccc(C(F)(F)F)c3Cl)c2n1` [Example 120, 5-tert-Butyl-3-(2-chloro-3-trifluoromethyl-benzyl)-7-(3,3-difluoro-pyrrolidin-1-yl)-3H-[1,2,3]triazolo[4,5-d]pyrimidine] was tested, and the EC50 [1] was 0.7 nM and the EC50 [2, 3] was 181 nM.
